Test results from patent US20110280881A1, “NOVEL ANTI-HSP90 MONOCLONAL ANTIBODY” (RIKEN, priority 2010, published 2011).

What was measured:
DC2.4 cells = assay: Influence of HSP90 inhibitors on expression of cell surface HSP90 (FACS with 6H8); assay type: cell-based; settings: DC2.4, 37° C., 3 hours; OVA 1 mg/ml, radicicol 25 μM, novobiocin 400 μM
Description: DC2.4 cells were incubated in the presence of OVA (in FIG. 4A, i; 1 mg/ml), radicicola (in FIG. 4A, ii; 25 μM) or novobiocin (in FIG. 4A, iii; 400 μM) with 5% CO2 at 37° C. for 3 hours. Next, the cells were cooled on ice. To detect cell surface HSP90, the cells were stained with the 6H8 antibody and then analyzed by FACS.

[1] = tested on: DC2.4 cells and mouse GM-CSF-dependent BMDC; assay: Influence of cytokines on expression of cell surface HSP90 (FACS with 6H8); assay type: cell-based; settings: for expression of cell surface HSP90 after IFN treatment: DC2.4 and mouse GM-CSF-dependent BMDC, 24 hours, IFNα 500 U/ml, IFNβ 500 U/ml, IFNγ 50 ng/ml; for MFI of cell surface HSP90 after cytokine treatment versus negative control: BMDC, cytokines 100 ng/ml or 10 ng/ml
Description: In view of the possibility that cytokines are variation factors for the expression of cell surface HSP90, the influences of various cytokines on the expression of cell surface HSP90 were examined as described below.
The solid bars indicate the MFI for BMDC incubated in the presence of high concentrations of IFNs (as in FIG. 5B) or other cytokines (100 ng/ml); the grey bars indicate the MFI for BMDC incubated in the presence of low concentrations of IFNs (as in FIG. 5B) or other cytokines (10 ng/ml). The open bars indicate the MFI for BMDC incubated in the absence of the cytokines as negative controls.

OT-I CD8+ T cells [2] = assay: In vitro cross-presentation assay with BMDC of normal and FcRγ KO mouse; assay type: cell-based; settings: BMDC pulsed 3 hours, co-culture with OT-I CD8+ T cells, IFNγ ELISA
Description: (1) A bone marrow-derived dendritic cells (BMDCs) were established from a normal mouse and an FcRγ KO mouse (supplied by Professor Akira Shibuya, Immunology, Life System Medical Sciences, Majors of Medical Sciences, Graduate School of Comprehensive Human Sciences, University of Tsukuba) as described below. Bone marrow was recovered from a mouse femur and tibia, and 1×10^6 cells each were cultured in a 24-well plate using 2 ml/well of a complete RPMI containing 20 ng/ml recombinant mouse GM-CSF (R&D). Half of the medium was exchanged for a fresh medium on day 3 of cultivation, and the cells obtained on day 5 of cultivation were used as the BMDC. (2) BMDCs at Day 5 induced in a GM-CSF-dependent manner was stained with biotin-6H8 (2.5 μg/ml) and streptavidin-APC (0.2 μg/ml), and its fluorescence was determined using FACS Canto (BD).
(1) A pellet of 1×10^6 BMDC cells at Day 5 induced in a GM-CSF-dependent manner were prepared in a 15-ml tube. After adding 400 μl of an antigen (6H8-OVA, OVA, or OVA257-264) thereto, the tube was incubated with 5% CO2 at 37° C. for 3 hours. The cells were fixed in 0.5% para-formaldehyde, after which the cells were washed with 0.1 M glycine and then with RPMI; thereafter, the density was adjusted to 1×10^5 cells/ml. (2) Concurrently, OT-I CD8^+ T cells were purified and the density was adjusted to 1×10^5 cells/ml. […]

OT-I CD8+ T cells [3] = assay: In vivo cross-presentation assay with free 6H8 antibody administered concurrently; set-up: species or system mouse; settings: antigen 0.3 μg with free 6H8 antibody 30 μg, 72 hours
Description: (1) CFSE-labeled CD8^+ T cells of an OT-I/CD45.1 mouse were transferred to recipient mice from the tail vein, with 6H8-OVA [or 6H8 (F(ab′)2)—OVA, or OVA, or IgG2a-OVA] (0.3 μg) and the free 6H8 antibody [or 6H8 (F(ab′)2) or IgG2a] (30 μg) administered from the tail vein concurrently. (2) 72 hours later, the spleen was recovered from each mouse, and 2×10^6 splenocytes were stained with the PE-CD45.1 antibody in a 96-well round-bottomed plate for 30 minutes (while cooling on ice). (3) The CFSE intensity of CD45.1-positive cells (OT-I CD8^+ T cells) was determined using FACS Canto (BD).

Compound	influence on expression level of surface HSP90 (DC2.4 cells)	MFI of cell surface HSP90 after cytokine treatment versus negative control [1]	also measured
CO[C@@H]1[C@@H](OC(N)=O)[C@@H](O)[C@H](Oc2ccc3c(O)c(NC(=O)c4ccc(O)c(CC=C(C)C)c4)c(=O)oc3c2C)OC1(C)C [novobiocin]	no or almost no influence		
C[C@@H]1C[C@H]2O[C@@H]2/C=C\C=C\C(=O)Cc2c(Cl)c(O)cc(O)c2C(=O)O1 [radicicol]	no or almost no influence		
IFNα			expression of cell surface HSP90 after IFN treatment [1]: increased
IFNγ: cytokine			expression of cell surface HSP90 after IFN treatment [1]: increased
IL-5: cytokine		no significant difference from the negative control	
IL-6: cytokine		no significant difference from the negative control	
IL-15: cytokine		no significant difference from the negative control	
IL-18: cytokine		no significant difference from the negative control	
OVA257-264: major OVA epitope peptide (SIINFEKL)			cross-presentation potential of FcRγ KO mouse-derived dendritic cells compared with normal mouse-derived dendritic cells (OT-I CD8+ T cells [2]): equivalent
ovalbumin [ovalbumin used as a model antigen]	do not influence		enhancing effect by the 6H8 antibody on proliferation reaction of OT-I CD8+ T cells with this antigen (OT-I CD8+ T cells [3]): not noted; cross-presentation potential of FcRγ KO mouse-derived dendritic cells compared with normal mouse-derived dendritic cells (OT-I CD8+ T cells [2]): equivalent
